Several values for one entry are separate records, joined by “and”; a condition that tells them apart may be missing. Equal values may be shown once. Read-outs that look alike come from different tables or passages of the source.
Tests used:
[1] = system: Lymphocyte Leukemia P-388; experiment: Survival time of mice inoculated i.p. with Lymphocyte Leukemia P-388, treated days 5, 9 and 13 (Table A); assay type: in vivo, mouse; conditions: for T/C vs mouse leukemia P388: at 50 mg/kg (thiomorpholino) or 8 mg/kg (doxorubicin); for dose required vs mouse leukemia P388: dose for the T/C quoted
[2] = system: DNA synthesis in L 1210 Cells; experiment: Inhibition of DNA synthesis in L 1210 Cells; assay type: cell-based, mouse
[3] = system: RNA synthesis in L 1210 Cells; experiment: Inhibition of RNA synthesis in L 1210 Cells; assay type: cell-based, mouse
[4] = prior art; cited from earlier work
[5] = system: DNA; conditions: cited from earlier work
[6] = system: mouse leukemia P388; conditions: cited from earlier work; for activity in mouse leukemia P388 screen / dose requirement in P388 screen: 3-dose schedule q4d 5,9,13; for T/C value against P388: U.S. Pat. No. 4,301,277
[7] = system: B-16 Melanoma; experiment: Mouse antitumor efficacy vs B-16 Melanoma (Table B)
[8] = system: P-388 leukemia; experiment: Mouse antitumor efficacy vs P-388 leukemia (Table B)
[9] = system: tumors (colon cancer, melanoma); conditions: cited from earlier work
[10] = system: heart; conditions: some patients; cited from earlier work
[11] = P-388 in mice, q4d 5,9,13, at optimum dose
[12] = Mus musculus, L1210, L-1210 cells, DNA synthesis, read-out: Leukemia L-1210 Cells Inhibition of Synthesis ED50, DNA
[13] = Mus musculus, L1210, L-1210 cells, RNA synthesis, read-out: Leukemia L-1210 Cells Inhibition of Synthesis ED50, RNA
[14] = Mus musculus, L1210, read-out: Leukemia L-1210 Cells Inhibition of Synthesis ED50, DNA
[15] = Mus musculus, L1210, read-out: Leukemia L-1210 Cells Inhibition of Synthesis ED50, RNA

COc1cccc2c1C(=O)c1c(O)c3c(c(O)c1C2=O)C[C@@](O)(C(C)=O)C[C@@H]3O[C@H]1C[C@H](N2CCSCC2)[C@H](O)[C@H](C)O1
T/C vs mouse leukemia P388 [1]: 169% | dose required vs mouse leukemia P388 [1]: 50 mg/kg

COc1cccc2c1C(=O)c1c(O)c3c(c(O)c1C2=O)C[C@@](O)(C(=O)CO)C[C@@H]3O[C@H]1C[C@H](N2C(=O)COCC2C#N)[C@H](O)[C@H](C)O1 (stereo partly shown) [3'-deamino-3'-(3"-cyano-5"-oxo-4"-morpholinyl)-doxorubicin]
IC50 ([2]; l1210 cells, read-out: Leukemia L-1210 Cells Inhibition of Synthesis ED50, DNA): 50 nM | IC50 ([3]; l1210 cells, read-out: Leukemia L-1210 Cells Inhibition of Synthesis ED50, RNA): 30 nM

COc1cccc2c1C(=N)c1c(O)c3c(c(O)c1C2=O)C[C@@](O)(C(C)=O)C[C@@H]3O[C@H]1C[C@H](N)[C@H](O)[C@H](C)O1 [5-Iminodaunorubicin]
antitumor activity, side effects and dosage [4]: retained activity with reduced side effects

COc1cccc2c1C(=N)c1c(O)c3c(c(O)c1C2=O)C[C@@](O)(C(=O)CO)C[C@@H]3O[C@H]1C[C@H](N)[C@H](O)[C@H](C)O1 [5-iminodoxorubicin]
antitumor activity, side effects and dosage [4]: showed enhanced activity but required higher dosages

CCCCC(=O)OCC(=O)[C@]1(O)Cc2c(O)c3c(c(O)c2[C@@H](O[C@H]2C[C@H](NC(=O)C(F)(F)F)[C@H](O)[C@H](C)O2)C1)C(=O)c1c(OC)cccc1C3=O [AD32]
interaction with DNA in vitro [5]: fail to interact with DNA in vitro | activity in mouse leukemia P388 screen [6]: most active new analogues so far | dose requirement in P388 screen [6]: required significantly higher doses

COc1cccc2c1C(=O)c1c(O)c3c(c(O)c1C2=O)C[C@@](O)(C(C)=O)C[C@@H]3O[C@H]1C[C@H](N(Cc2ccccc2)Cc2ccccc2)[C@H](O)[C@H](C)O1 [N,N-dibenzyldaunorubicin]
interaction with DNA in vitro [5]: fail to interact with DNA in vitro | activity in mouse leukemia P388 screen [6]: most active new analogues so far | dose requirement in P388 screen [6]: required significantly higher doses

COc1cccc2c1C(=O)c1c(O)c3c(c(O)c1C2=O)C[C@@](O)(C(C)O)C[C@@H]3O[C@H]1C[C@H](N2CCOCC2)[C@H](O)[C@H](C)O1 (stereo partly shown) [NSC 327450, 3'-deamino-3'-(4"-morpholinyl)-13-dihydrodaunorubicin]
Survival Time, % T/C [1, 11]: 132% | IC50 [2, 12]: 2200 nM | IC50 [3, 13]: 670 nM | Mouse Antitumor Efficacy at Optimum Dose, % T/C ([7]; section "ip B16", d 1, ip): 121%

COc1cccc2c1C(=O)c1c(O)c3c(c(O)c1C2=O)C[C@@](O)(C(C)=O)C[C@@H]3O[C@H]1C[C@H](N2CCOCC2)[C@H](O)[C@H](C)O1 [NSC 327451, 3'-deamino-3'-(4"-morpholinyl)daunorubicin]
Survival Time, % T/C [1, 11]: 166% | IC50 [2, 12]: 760 nM | IC50 [3, 13]: 100 nM | active dose relative to the dose of doxorubicin ([6]; prior art, P388): one-fortieth the dose of doxorubicin | T/C value against P388 ([6]; prior art): 166% | Mouse Antitumor Efficacy at Optimum Dose, % T/C ([8]; ip P388, d 1, ip): 155% | Optimum Dose ([8]; ip P388, d 1, ip): 0.25 mg/kg | Mouse Antitumor Efficacy at Optimum Dose, % T/C ([8]; ip P388, d 1, iv): 152% | Optimum Dose ([8]; ip P388, d 1, iv): 0.5 mg/kg | Mouse Antitumor Efficacy at Optimum Dose, % T/C ([7]; section "ip B16", d 1, ip): 135%

COc1cccc2c1C(=O)c1c(O)c3c(c(O)c1C2=O)C[C@@](O)(C(C)=O)C[C@@H]3O[C@H]1C[C@H](N2CCOCC2C#N)[C@H](O)[C@H](C)O1 (stereo partly shown) [NSC 332304, 3'-deamino-3'-(3"-cyano-4"-morpholinyl)daunorubicin]
Survival Time, % T/C [1, 11]: 197% | IC50 [2, 14]: 12 nM | inhibition of RNA vs DNA synthesis [3]: much more inhibitory toward RNA synthesis than toward DNA synthesis | Mouse Antitumor Efficacy at Optimum Dose, % T/C ([8]; ip P388, d 1, ip): 175% | Optimum Dose ([8]; ip P388, d 1, ip): 0.25 mg/kg | Mouse Antitumor Efficacy at Optimum Dose, % T/C ([8]; ip P388, d 1, iv): 157% | Optimum Dose ([8]; ip P388, d 1, iv): 0.5 mg/kg | Mouse Antitumor Efficacy at Optimum Dose, % T/C ([7]; section "ip B16", d 1, ip): 138%

COc1cccc2c1C(=O)c1c(O)c3c(c(O)c1C2=O)C[C@@](O)(C(C)O)C[C@@H]3O[C@H]1C[C@H](N2CCOCC2C#N)[C@H](O)[C@H](C)O1 (stereo partly shown) [NSC 332305, 3'-deamino-3'-(3"-cyano-4"-morpholinyl)-13-dihydrodaunorubicin]
Survival Time, % T/C [1, 11]: 143% | IC50 [2, 14]: 19 nM | inhibition of RNA vs DNA synthesis [3]: much more inhibitory toward RNA synthesis than toward DNA synthesis | Mouse Antitumor Efficacy at Optimum Dose, % T/C ([7]; section "ip B16", d 1, ip): 131%

COc1cccc2c1C(=O)c1c(O)c3c(c(O)c1C2=O)C[C@@](O)(C(C)=O)C[C@@H]3O[C@H]1C[C@H](N2CCC(OC)CC2)[C@H](O)[C@H](C)O1 [NSC 334353, 3-deamino-3'-(4"-methoxy-1"-piperidinyl)-daunorubicin]
Survival Time, % T/C [1, 11]: 199% | IC50 [2, 14]: 630 nM | IC50 [3, 15]: 120 nM

COc1cccc2c1C(=O)c1c(O)c3c(c(O)c1C2=O)C[C@@](O)(C(C)O)C[C@@H]3O[C@H]1C[C@H](N2CCC(OC)CC2)[C@H](O)[C@H](C)O1 (stereo partly shown) [NSC 334354, 3'-deamino-3'-(4'-methoxy-1-piperidinyl)-13-dihydrodaunorubicin]
Survival Time, % T/C [1, 11]: 199% | IC50 [2, 12]: 580 nM | IC50 [3, 13]: 80 nM

COc1cccc2c1C(=O)c1c(O)c3c(c(O)c1C2=O)C[C@@](O)(C(=O)CO)C[C@@H]3O[C@H]1C[C@H](N2CCOCC2)[C@H](O)[C@H](C)O1 [NSC 354646, 3'-deamino-3'-(4"-morpholinyl)doxorubicin]
Mouse Antitumor Efficacy at Optimum Dose, % T/C ([8]; ip P388, d 1, ip): 182% | Optimum Dose ([8]; ip P388, d 1, ip): 0.05 mg/kg | Mouse Antitumor Efficacy at Optimum Dose, % T/C ([8]; ip P388, d 1, iv): > 143% | Optimum Dose ([8]; ip P388, d 1, iv): 0.062 mg/kg | Mouse Antitumor Efficacy at Optimum Dose, % T/C ([8]; ip P388, q4d 1,5,9, ip): 224% | Optimum Dose ([8]; ip P388, q4d 1,5,9, ip): 0.05 mg/kg | Mouse Antitumor Efficacy at Optimum Dose, % T/C ([8]; ip P388, q4d 1,5,9, po): 175% | Optimum Dose ([8]; ip P388, q4d 1,5,9, po): 0.05 mg/kg | Mouse Antitumor Efficacy at Optimum Dose, % T/C ([8]; ip P388, qd 1-9, ip): 209% | Optimum Dose ([8]; ip P388, qd 1-9, ip): 0.0125 mg/kg

COc1cccc2c1C(=N)c1c(O)c3c(c(O)c1C2=O)C[C@@](O)(C(=O)CO)C[C@@H]3O[C@H]1C[C@H](N2CCOCC2)[C@H](O)[C@H](C)O1 [NSC 355277, 3'-deamino-3'-(4"-morpholinyl)-5-iminodoxorubicin]
Mouse Antitumor Efficacy at Optimum Dose, % T/C ([8]; ip P388, d 1, ip): > 193% | Optimum Dose ([8]; ip P388, d 1, ip): 2 mg/kg | Mouse Antitumor Efficacy at Optimum Dose, % T/C ([8]; ip P388, d 1, iv): 166% | Optimum Dose ([8]; ip P388, d 1, iv): 2.5 mg/kg

COc1cccc2c1C(=N)c1c(O)c3c(c(O)c1C2=O)C[C@@](O)(C(O)CO)C[C@@H]3O[C@H]1C[C@H](N2CCOCC2)[C@H](O)[C@H](C)O1 (stereo partly shown) [NSC 355465, 3'-deamino-3'-(4"-morpholinyl)-5-imino-13-dihydrodoxorubicin]
Survival Time, % T/C [1, 11]: 161% | IC50 [2, 14]: > 100000 nM | IC50 [3, 15]: 24000 nM

COc1cccc2c1C(=O)c1c(O)c3c(c(O)c1C2=O)C[C@@](O)(C(=O)CO)C[C@@H]3O[C@H]1C[C@H](N2CCOCC2C#N)[C@H](O)[C@H](C)O1 (stereo partly shown) [NSC 357704, 3'-deamino-3'-(3"-cyano-4"-morpholinyl)doxorubicin]
Mouse Antitumor Efficacy at Optimum Dose, % T/C ([8]; mouse, in vivo): 152% and > 158% | Optimum Dose ([8]; mouse, in vivo): 0.05 mg/kg and 0.1 mg/kg | Mouse Antitumor Efficacy at Optimum Dose, % T/C ([8]; mouse, in vivo, ip): 262% and > 360% | Optimum Dose ([8]; mouse, in vivo, ip): 0.0125 mg/kg and 0.0063 mg/kg | Mouse Antitumor Efficacy at Optimum Dose, % T/C ([7]; mouse, in vivo, ip): > 138% and 123%

COc1cccc2c1C(=O)c1c(O)c3c(c(O)c1C2=O)C[C@@](O)(C(O)CO)C[C@@H]3O[C@H]1C[C@H](N2CCOCC2C#N)[C@H](O)[C@H](C)O1 (stereo partly shown) [NSC 360291, 3'-deamino-3'-(3"-cyano-4"-morpholinyl)-13-dihydrodoxorubicin]
Survival Time, % T/C [1, 11]: 150% | Mouse Antitumor Efficacy at Optimum Dose, % T/C ([8]; mouse, in vivo, ip): 183% and 267% | Optimum Dose ([8]; mouse, in vivo, ip): 0.05 mg/kg and 0.025 mg/kg | Mouse Antitumor Efficacy at Optimum Dose, % T/C ([7]; mouse, in vivo, ip): 149% and 121%

COc1cccc2c1C(=O)c1c(O)c3c(c(O)c1C2=O)C[C@@](O)(C(C)=O)C[C@@H]3O[C@H]1C[C@H](N)[C@H](O)[C@H](C)O1 [daunorubicin]
Survival Time, % T/C ([1]; mouse, in vivo): 130% | IC50 [2, 14]: 660 nM | IC50 [3, 15]: 330 nM | Mouse Antitumor Efficacy at Optimum Dose, % T/C ([7]; mouse, in vivo, ip): 195%

COc1cccc2c1C(=O)c1c(O)c3c(c(O)c1C2=O)C[C@@](O)(C(=O)CO)C[C@@H]3O[C@H]1C[C@H](N)[C@H](O)[C@H](C)O1 [doxorubicin]
response of patients with some serious tumor types (colon cancer, melanoma) [9]: essentially no patients with some serious tumor types (colon cancer, melanoma) respond | T/C vs mouse leukemia P388 [1]: 160% | dose required vs mouse leukemia P388 [1]: 8 mg/kg | Survival Time, % T/C ([1]; mouse, in vivo): 160% | IC50 [2, 14]: 1500 nM | heart damage in chronic treatment [10]: irreversible heart damage that can be fatal if continued | IC50 [3, 15]: 580 nM | T/C value against P388 ([6]; prior art): 160% | Mouse Antitumor Efficacy at Optimum Dose, % T/C ([8]; mouse, in vivo): 185% | Optimum Dose ([8]; mouse, in vivo): 10 mg/kg | Mouse Antitumor Efficacy at Optimum Dose, % T/C ([8]; mouse, in vivo, ip): 252% and 257% and > 285%
